In ChEMBL document CHEMBL1126495, “A new series of potent LTD4 antagonists in the styrylquinoline class” (Bioorg Med Chem Lett, 1993):

Target: T1, Cysteinyl leukotriene receptor 1 (Cavia porcellus, UniProt Q2NNR5)
T1 sequence (Q2NNR5 whole entry): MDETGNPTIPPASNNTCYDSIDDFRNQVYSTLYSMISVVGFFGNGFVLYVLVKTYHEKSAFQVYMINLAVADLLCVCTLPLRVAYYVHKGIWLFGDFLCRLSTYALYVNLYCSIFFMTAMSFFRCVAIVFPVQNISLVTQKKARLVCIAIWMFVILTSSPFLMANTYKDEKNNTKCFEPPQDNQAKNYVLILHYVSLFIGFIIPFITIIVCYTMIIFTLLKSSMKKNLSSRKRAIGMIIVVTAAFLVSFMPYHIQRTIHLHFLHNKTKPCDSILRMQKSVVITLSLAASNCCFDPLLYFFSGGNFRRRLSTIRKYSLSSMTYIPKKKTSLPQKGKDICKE
Assay: Inhibition of [3H]LTD4 binding to guinea-pig lung membrane
Assay type: tissue-based

| SMILES | IC50 [nM] |
| --- | --- |
| CC(C)(O)CCCSC(CCC(C)(C)CC(=O)O)c1cccc(/C=C/c2ccc3ccc(Cl)cc3n2)c1 (stereo not drawn) | 1.3 |
| CC(CC[C@H](SCCCC(C)(C)O)c1cccc(/C=C/c2ccc3ccc(Cl)cc3n2)c1)CC(=O)O (stereo partly drawn) | 0.5 |
| CC(C)(CC[C@@H](SCc1ccccc1C(C)(C)O)c1cccc(/C=C/c2ccc3ccc(Cl)cc3n2)c1)CC(=O)O | 1 |
| C[C@H](CCC[C@@H](SCCC(C)(C)O)c1cccc(/C=C/c2ccc3ccc(Cl)cc3n2)c1)C(=O)O | 0.8 |
| C[C@H](CCC[C@H](SCCC(=O)N(C)C)c1cccc(/C=C/c2ccc3ccc(Cl)cc3n2)c1)C(=O)O | 2.3 |
| C[C@H](CCC[C@@H](SCCC(=O)N(C)C)c1cccc(/C=C/c2ccc3ccc(Cl)cc3n2)c1)C(=O)O | 0.9 |
| C[C@H](CCC[C@H](SCCC(C)(C)O)c1cccc(/C=C/c2ccc3ccc(Cl)cc3n2)c1)C(=O)O | 2 |

The remaining lines, values ahead:

| IC50 [nM] | SMILES |
| --- | --- |
| 1.4 | CC(C)(O)c1ccccc1CS[C@@H](CCC1(CC(=O)O)CC1)c1cccc(CCc2ccc3ccc(Cl)cc3n2)c1 |
| 1.9 | CC(C)(CC[C@@H](SCc1ccccc1C(C)(C)O)c1cccc(CCc2ccc3ccc(Cl)cc3n2)c1)CC(=O)O |
| 0.6 | CC(C)(CC[C@H](SCc1ccccc1C(C)(C)O)c1cccc(CCc2ccc3ccc(Cl)cc3n2)c1)CC(=O)O |
| 0.6 | CC(C)(CC[C@H](SCc1ccccc1C(C)(C)O)c1cccc(/C=C/c2ccc3ccc(Cl)cc3n2)c1)CC(=O)O |
| 1.6 | CC(C)(CC[C@H](SCc1ccccn1)c1cccc(CCc2ccc3ccc(Cl)cc3n2)c1)CC(=O)O |
| 2.2 | CC(C)(CC[C@H](SCCc1ccccn1)c1cccc(CCc2ccc3ccc(Cl)cc3n2)c1)CC(=O)O |
